According to patent publication US20190060410A1, “Pharmaceutical Formulation Comprising GLP-1 Analogue and Preparation Method Thereof” (Hangzhou Jiuyuan Gene Engineering Co., Ltd., priority 2015, published 2019):

Experiments:
[1] = patients, combined with metformin (Nauck et al.); cited from earlier work
[2] = dissolution of liraglutide powder at different pHs; format: physicochemical
Protocol: Investigating the dissolution of liraglutide powder at different pHs
The appropriate amount of liraglutide powder was dissolved in the water for injection and the disodium hydrogen phosphate buffer at a different pH was added resulting in the dissolution shown in Table 1.

[3] = following subcutaneous injection; cited from earlier work
[4] = cited from earlier work

Compound	incidence of hypoglycemia [1]	Dissolution ([2]; 6 mg/ml liraglutide in water for injection)	Dissolution ([2]; 6 mg/ml liraglutide, 10 mM disodium hydrogen phosphate buffer (pH 7.00))	Dissolution ([2]; 6 mg/ml liraglutide, 10 mM disodium hydrogen phosphate buffer (pH 7.50))	Dissolution ([2]; 6 mg/ml liraglutide, 10 mM disodium hydrogen phosphate buffer (pH 8.00))	Dissolution ([2]; 6 mg/ml liraglutide, 10 mM disodium hydrogen phosphate buffer (pH 8.15))	Dissolution ([2]; 6 mg/ml liraglutide, 10 mM disodium hydrogen phosphate buffer (pH 8.50))	Dissolution ([2]; 6 mg/ml liraglutide, 10 mM disodium hydrogen phosphate buffer (pH 9.00))	dissolution of liraglutide powder ([2]; acidic and neutral conditions)	dissolution of liraglutide powder ([2]; alkaline conditions)	plasma half-life [3] [h]	reduction of systolic blood pressure ([4]; LEAD series clinical trials, patients)	patients who reported nausea ([4]; LEAD-2 and LEAD-3 clinical trials) [%]
CCC1=C(C)CN(C(=O)NCCc2ccc(S(=O)(=O)NC(=O)N[C@H]3CC[C@H](C)CC3)cc2)C1=O [glimepiride]	17%												
Arg^34, Lys^26 (N^ε-(γ-Glu (N^α-hexadecanoyl))) GLP-1 (7-37) [liraglutide]	less than 3%	insoluble	insoluble	colorless	colorless	colorless	colorless	colorless	didn't dissolve	readily dissolved	13	2.7-6.7 mmHg	< 10
